We go through 21 compounds from US7989446B2, “4-amino 5-cyanopyrimidine derivatives” (Otsuka Pharmaceutical Co., Ltd., priority 2004, dated 2011).

Assay [1] relates to Intraocular Pressure in Rabbit. Briefly: Measuring test for intraocular pressure in rabbit. The assay is classed as in vivo, Female New Zealand white rabbits. The settings on record: 0.3% suspended ophthalmic preparation, test group, mean±standard error. The protocol:
(3) Measuring Test for Intraocular Pressure in Rabbit
The test compounds were dissolved in 10 mM of phosphate buffer (pH 7.5) (hereinafter, referred to as “vehicle of ophthalmic preparation”), and they were instilled in a given concentration. In addition, the compounds insoluble in that concentration was used as a suspension. Female New Zealand white rabbits (KITAYAMA LABES Co., Ltd.) whose weights were 2.0-4.0 kg were used.
The measurement of the intraocular pressure was carried out using Pneumatonometer (Model 30 Classic, Mentor company) without anesthesia. In addition, before the measurement of the intraocular pressure, the surface anesthesia with 0.4% oxybuprocaine hydrochloride (“Benoxil” 0.4% ophthalmic solution, Santen Pharmaceutical Co., Ltd.) was carried out.
The animals whose intraocular pressure was stable before instillation were selected, and these animals were divided to every 4 animal in each one group, 50 μL of eye drops including each the test compound was administered to one-sided eye and vehicle was administered to contralateral eye as the control eye. The measurement of intraocular pressure was carried out before instillation and after 0.5, 1, 2, 3, 4 and 6 hours from instillation. The effect on the intraocular pressure was shown as the difference from pre-instillation (ΔIOP, mmHg, mean±standard error). The following Tables 14 and 15 show the results of Control Compounds A and B used as 1% suspensions which are the same as in the pharmacological test (1).
The animals were pretreated as mentioned above, and among them animals whose intraocular pressure was stable before instillation were selected, and these animals were divided to every 5 to 8 animal in each one group. Every two group was used for each of the test compounds. The test compound was administered unilaterally to the eye of the test group rabbit and the intraocular pressure was measured. The vehicle was administered unilaterally to the eye of the control group rabbit and the intraocular pressure was measured. As mentioned above, the measurement of intraocular pressure was carried out before instillation and after 0.5, 1, 2, 3, 4 and 6 hours from instillation, and the effect on the intraocular pressure was shown as the difference from pre-instillation (ΔIOP, mmHg, mean±standard error).

For assay [2], the target named is T1, adenosine A2a receptor (Human) (Homo sapiens, UniProt P29274).
T1 construct: host or cells: HEK293
T1 sequence (P29274 whole entry): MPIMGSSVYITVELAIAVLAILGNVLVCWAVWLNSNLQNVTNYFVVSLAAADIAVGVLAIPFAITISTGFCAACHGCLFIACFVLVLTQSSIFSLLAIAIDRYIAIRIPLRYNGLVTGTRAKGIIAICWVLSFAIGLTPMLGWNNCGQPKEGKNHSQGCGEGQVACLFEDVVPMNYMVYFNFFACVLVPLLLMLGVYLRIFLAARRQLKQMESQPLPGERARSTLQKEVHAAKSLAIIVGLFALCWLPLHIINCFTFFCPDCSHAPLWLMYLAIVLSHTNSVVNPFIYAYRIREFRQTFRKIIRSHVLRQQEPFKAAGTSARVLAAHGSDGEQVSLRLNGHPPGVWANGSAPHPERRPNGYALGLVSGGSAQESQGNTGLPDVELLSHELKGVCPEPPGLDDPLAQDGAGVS
Kind of assay: c-AMP generating action in cell expressing adenosine A2a receptor. In kind it is cell-based. Particulars: HEK293 cell expressing human A2a; 100% = c-AMP caused by 1 μM CGS-21680; read-out: A2a Agonistic Action (EC50). As to the method: (1) c-AMP Generating Action in Cell Expressing Adenosine A2a Receptor
The test was carried out as mentioned below with reference to the method disclosed in the reference (Klotz k. N. et al., Naunyn-Schmiedeberg's Arch. Pharmacol., (1998) 357, 1-9; Shryock J. C. et al., Molecular Pharmacology, (1998) 53, 886-893).
As to the cell, HEK293 cell expressing adenosine A2a receptor (Human) (PerkinElmer Life Sciences, Code No. RBHA2AC) was used.
As to the culture medium, Dulbecco's modified Eagles medium (DMEM) including 10% FBS (Fetal bovine serum) and 1 mM of sodium pyruvate was used.
The cell was placed on 96 well plate (1×10^5/well), and cultured overnight. After removing off the supernatant, to each well, 0.1 ml of DMEM (without FBS) containing 20 mM HEPES, 0.1 mM of IBMX (3-isobutyl-1-methylxanthine) and 2 unit/mL adenosine deaminase was added, and they were incubated at 37° C. for 30 minutes. To each well, 0.1 ml of the culture medium including the DMSO solution of the test compound in an appropriate concentration was added and they were incubated for additional 30 minutes. After removing off the supernatant, the cytolytic solution was added to quench the reaction. The amount of c-AMP in each well was measured by using the c-AMP enzyme immunoassay (EIA) system (Amersham Biosciences, Code No. RPN225).
The same assay was repeated using CGS-21680 (2-p-carboxyethyl)phenethylamino-5′-N-ethylcarboxamidoadenosine hydrochloride, (Sigma, code C141) as reference compound. The amount of resultant c-AMP in the medium, caused by 1 μM of reference compound, was defined to be 100%. A concentration of assayed compound in the medium, producing 50% c-AMP amounts, was calculated to be EC50 value.

Counter-ions that a name gives are not always drawn.

`CCNC(=O)[C@H]1O[C@@H](n2cnc3c(N)nc(NCCc4ccc(CCC(=O)O)cc4)nc32)[C@H](O)[C@@H]1O` [CGS-21680, (2-p-carboxyethyl)phenethylamino-5′-N-ethylcarboxamidoadenosine hydrochloride, reference compound]: the “ΔIOP (mmHg)” value in assay [1] (0.5 hr) was −2.5 ± 0.4 mmHg; in assay [1] (1 hr), −6.3 ± 0.6 mmHg; in assay [1] (2 hr), −4.2 ± 0.4 mmHg; in assay [1] (3 hr), −3.5 ± 0.4 mmHg; in assay [1] (4 hr), −1.5 ± 0.7 mmHg; in assay [1] (6 hr), 0.3 ± 0.4 mmHg.

Consider `CC(=O)Nc1ccc(-c2nc(SCc3ccccn3)nc(N)c2C#N)cc1` [Example 1, N-{4-[6-amino-5-cyano-2-(pyridin-2-ylmethylsulfanyl)-pyrimidin-4-yl]phenyl}acetamide], for which the EC50 (in general, the concentration giving half of the maximal effect) in assay [2] stood at 39.6 nM.

In the case of `CC(=O)Nc1ccc(-c2nc(SCc3ccc(C)cn3)nc(N)c2C#N)cc1` [Example 3, N-{4-[6-amino-5-cyano-2-(5-methylpyridin-2-ylmethylsulfanyl)pyrimidin-4-yl]phenyl}acetamide], in assay [2], the concentration giving a half-maximal response (EC50) came to 65.7 nM.

Turning to `CC(=O)Nc1ccc(-c2nc(SCc3cc(C)ccn3)nc(N)c2C#N)cc1` [Example 4, N-{4-[6-amino-5-cyano-2-(4-methylpyridin-2-ylmethylsulfanyl)pyrimidin-4-yl]phenyl}acetamide], the concentration giving a half-maximal response (EC50) in assay [2] amounted to 879 nM.

As to `Cc1cccc(CSc2nc(N)c(C#N)c(-c3ccc(N)cc3)n2)n1` [Example 8, 4-amino-6-(4-aminophenyl)-2-(6-methylpyridin-2-ylmethylsulfanyl)-pyrimidine-5-carbonitrile], the EC50 in assay [2] is 34.8 nM.

Regarding `CCC(=O)Nc1ccc(-c2nc(SCc3cccc(C)n3)nc(N)c2C#N)cc1` [Example 9, N-{4-[6-amino-5-cyano-2-(6-methylpyridin-2-ylmethylsulfanyl)-pyrimidin-4-yl]phenyl}propionamide], the 50% effective concentration (EC50) in assay [2] amounted to 9 nM.

For `C=CC(=O)Nc1ccc(-c2nc(SCc3cccc(C)n3)nc(N)c2C#N)cc1` [Example 10, N-{4-[6-amino-5-cyano-2-(6-methylpyridin-2-ylmethylsulfanyl)pyrimidin-4-yl]phenyl}acrylamide], the EC50 in assay [2] turned out to be 19.1 nM.

`CCCC(=O)Nc1ccc(-c2nc(SCc3cccc(C)n3)nc(N)c2C#N)cc1` [Example 11, N-{4-[6-amino-5-cyano-2-(6-methylpyridin-2-ylmethylsulfanyl)pyrimidin-4-yl]phenyl}butylamide]: the EC50 in assay [2] was 395 nM.

On to `COC(=O)Nc1ccc(-c2nc(SCc3cccc(C)n3)nc(N)c2C#N)cc1` [Example 13, methyl {4-[6-amino-5-cyano-2-(6-methylpyridin-2-ylmethylsulfanyl)pyrimidin-4-yl]phenyl}-carbamate], for which the EC50 in assay [2] turned out to be 13.5 nM.

With `CC(=O)Nc1ccc(-c2nc(SCc3cccc(CN4CCN(C(=O)OC(C)(C)C)CC4)n3)nc(N)c2C#N)cc1` [Example 17, t-butyl 4-{6-[4-(4-acetylaminophenyl)-6-amino-5-cyanopyrimidin-2-ylsulfanyl-methyl]-pyridin-2-ylmethyl}piperazine-1-carboxylate], the EC50 in assay [2] came to 6.8 nM.

For the compound `CC(=O)Nc1ccc(-c2nc(SCc3cccc(CN4CCN(C(=O)c5ccccc5)CC4)n3)nc(N)c2C#N)cc1` [Example 19, N-(4-{6-amino-2-[6-(4-benzoylpiperazin-1-ylmethyl)pyridin-2-ylmethylsulfanyl]-5-cyanopyrimidin-4-yl}phenyl)acetamide], the EC50 in assay [2] amounted to 7.4 nM.

In the case of `CC(=O)Nc1ccc(-c2nc(SCc3cccc(CN4CCN(C(=O)CN5CCN(C)CC5)CC4)n3)nc(N)c2C#N)cc1` [Example 21, N-{4-[6-amino-5-cyano-2-(6-{4-[2-(4-methylpiperazin-1-yl)acetyl]piperazin-1-ylmethyl}pyridin-2-ylmethylsulfanyl)pyrimidin-4-yl]phenyl}acetamide hydrochloride], in assay [2], the EC50 turned out to be 10.6 nM.

As for `CC(=O)Nc1ccc(-c2nc(SCc3cccc(C(=O)N4CCOCC4)n3)nc(N)c2C#N)cc1` [Example 26, N-(4-{6-amino-5-cyano-2-[6-(morpholin-4-carbonyl)pyridin-2-ylmethyl-sulfanyl]pyrimidin-4-yl}phenyl)acetamide hydrochloride salt], the concentration giving a half-maximal response (EC50) in assay [2] amounted to 30.7 nM.

With `CC(=O)Nc1ccc(-c2nc(SCc3cccc(C(=O)N4CCN(C(=O)OC(C)(C)C)CC4)n3)nc(N)c2C#N)cc1` [Example 28, t-butyl 4-{6-[4-(4-acetylaminophenyl)-6-amino-5-cyanopyrimidin-2-ylsulfanyl-methyl]pyridine-2-carbonyl}piperazine-1-carboxylate], the EC50 in assay [2] stood at 8.2 nM.

Take `CC(=O)Nc1ccc(-c2nc(SCc3cccc(CNC(=O)CCCN4CCCC4)n3)nc(N)c2C#N)cc1` [Example 33, N-{6-[4-(4-acetylaminophenyl)-6-amino-5-cyanopyrimidin-2-ylsulfanylmethyl]pyridin-2-ylmethyl}-4-pyrrolidin-1-ylbutyl-amide]: the EC50 in assay [2] was determined as 48 nM.

With `CCCS(=O)(=O)N(C)Cc1cccc(CSc2nc(N)c(C#N)c(-c3ccc(NC(C)=O)cc3)n2)n1` [Example 41, N-{4-[6-amino-5-cyano-2-(6-{[methyl(propan-1-sulfonyl)amino]methyl}-pyridin-2-ylmethylsulfanyl)pyrimidin-4-yl]phenyl}acetamide], the concentration for a half-maximal effect (EC50) in assay [2] is 23 nM.

For the compound `CC(=O)Nc1ccc(-c2nc(SCc3cccc(CCC(=O)OC(C)(C)C)n3)nc(N)c2C#N)cc1` [Example 42, t-butyl 3-{6-[4-(4-acetylaminophenyl)-6-amino-5-cyanopyrimidin-2-ylsulfanyl-methyl]pyridin-2-yl}propionate], the concentration for a half-maximal effect (EC50) in assay [2] was 10 nM.

As for `CC(=O)Nc1ccc(-c2nc(SCc3cccc(C=CC(=O)N4CCN(C)CC4)n3)nc(N)c2C#N)cc1` [Example 48, N-[4-(6-amino-5-cyano-2-{6-[3-(4-methylpiperazin-1-yl)-3-oxopropenyl]pyridin-2-ylmethylsulfanyl}pyrimidin-4-yl)-phenyl]acetamide], the EC50 in assay [2] turned out to be 29.1 nM.

`CC(=O)Nc1ccc(-c2nc(SCc3cccc(C#CCCC(=O)N4CCN(C)CC4)n3)nc(N)c2C#N)cc1` [Example 52, N-[4-(6-amino-5-cyano-2-{6-[5-(4-methylpiperazin-1-yl)-5-oxopent-1-ynyl]pyridin-2-ylmethylsulfanyl}pyrimidin-4-yl)phenyl]acetamide]: the EC50 in assay [2] came out at 7 nM.

For `CC(=O)Nc1ccc(-c2nc(SCc3cccc(CCCCC(=O)N4CCN(C)CC4)n3)nc(N)c2C#N)cc1` [Example 54, N-[4-(6-amino-5-cyano-2-{6-[5-(4-methylpiperazin-1-yl)-5-oxopentyl]pyridin-2-ylmethyl-sulfanyl}pyrimidin-4-yl)phenyl]acetamide], the concentration for a half-maximal effect (EC50) in assay [2] amounted to 5.3 nM.

Consider `CCN(CC)CCN1CCN(C(=O)CCCCc2cccc(CSc3nc(N)c(C#N)c(-c4ccc(NC(C)=O)cc4)n3)n2)CC1` [Example 55, N-{4-[6-amino-5-cyano-2-(6-{5-[4-(2-diethylaminoethyl)piperazin-1-yl]-5-oxopentyl}pyridin-2-ylmethylsulfanyl)pyrimidin-4-yl]phenyl}acetamide hydrochloride], for which the 50% effective concentration (EC50) in assay [2] was 5.5 nM.
